# EP0526258A2, “A87689 Compounds, their production and use as phospholipase-A2 inhibitors” (ELI LILLY AND COMPANY, priority 1991, dated 1993)
# Tested on: lipoidalamine-induced arthritis
# Test: Lipoidalamine-induced arthritis model
# Type: in vivo
# Conditions: rat, positive control, 0.1 mg/kg orally
# Source text: The lipoidalamine-induced arthritis test is a model of systemic inflammation and arthritis induced by the adjuvant substance N, N-dioctadecyl-N′,N′-bis(2-hydroxyethyl)propanediamine (LA) suspended in mineral oil. The disease that results is very similar to that occurring in Freund's complete adjuvant (FCA) treated rats according to Chang [Chang, Y., Pearson, C. M., and Abe, C., "Adjuvant polyarthritis IV. Induction by a synthetic adjuvant: immunologic, histopathologic, and other studies," Arth. Rheum.23: 62-71, (1980)]. Inflammation occurs in many tissues but is most striking in the spleen and joints. Compounds are tested for their ability to modulate splenic and joint inflammation in established disease (treatment starts on day 9).
# The animals (Lewis/Sprague Dawley, males, 200-220 grams) are divided into groups of 5 and housed in hanging cages with food and water ad libitum. On day 0 they are injected with 7.5 mg of LA subcutaneously at the base of the tail. On day 9 the animals are weighed and compound administration is started. The compounds are suspended, using a tissue homogenizer, in a 1% CMC solution. The screening dose is 50 mg/kg orally. Compounds are administered once daily for 5 days (days 9-13) with no dosing on day 14. On day 15 the animals are weighed again and hind paw volume measured using a water manometer. The animals are then anesthetized and bled via cardiac puncture. After the animals are euthanized, the spleen is removed and weighed and the hind feet are removed just above the ankle joint and weighed. The individual blood samples are analyzed for fibrinogen. Means and standard errors for all of these parameters are then calculated, and percent differences from the diseased (LA) control are figured. Statistical significance is determined utilizing the Dunnet T calculation on the raw data. The positive control for the LA arthritis test is dexamethasone. Dexamethasone at a dose of 0.1 mg/kg orally will inhibit paw swelling by 80-90% and spleen weight by 90-100%. […]
compound,measurement,setting,value
"C[C@@H]1C[C@H]2[C@@H]3CCC4=CC(=O)C=C[C@]4(C)[C@@]3(F)[C@@H](O)C[C@]2(C)[C@@]1(O)C(=O)CO [Dexamethasone, dexamethasone]",inhibit paw swelling,,80-90%
same,inhibit spleen weight,,90-100%
same,fibrinogen inhibited,more variable,50-70%
